Source: patent US9212201B2, “Antifungal and antiparasitic polyene macrolides” (priority 2010, dated 2015)
Values after ≈ are worked out from the molar mass of the structure shown.

How the values were obtained:
Test in all cases: In vitro antifungal susceptibility CLSI M27-A2 (MIC, MFC)
Assay type in all cases: cell-based
C. albicans = C. albicans (10)
C. glabrata = C. glabrata (10)
C. parapsilosis = C. parapsilosis (10)
C. tropicalis = C. tropicalis (10)
C. lusitaniae = C. lusitaniae (10)
C. kefyr = C. kefyr (10)
C. krusei = C. krusei (10)
C. rugosa = C. rugosa (2)
C. guilliermondii = C. guilliermondii (2)
[1] = tested on: Other Candida species (C. lipolytica, C. sake, C. sphaerica, C. norvegica); conditions: Other Candida spp. (4)

`C[C@@H](c1ncncc1F)[C@](O)(Cn1cncn1)c1ccc(F)cc1F` [Voriconazole, voriconazole] was tested, and the “MIC Range” value (C. albicans) was <0.03 to 0.25 µg/mL, the MIC (C. albicans; Candida albicans, read-out: GM (geometric mean MIC)) was 0.06 µg/mL (≈ 0.172 µM) and the MIC50 (C. albicans; Candida albicans, read-out: MIC50) was 0.03 µg/mL (≈ 0.0859 µM). The MIC90 (C. albicans; Candida albicans, read-out: MIC90) was 0.06 µg/mL (≈ 0.172 µM), the “MIC Range” value (C. glabrata) was 0.12 to 2 µg/mL and the MIC (C. glabrata; Nakaseomyces glabratus, read-out: GM (geometric mean MIC)) was 0.56 µg/mL (≈ 1.6 µM). The MIC50 (C. glabrata; Nakaseomyces glabratus, read-out: MIC50) was 0.5 µg/mL (≈ 1.43 µM), the MIC90 (C. glabrata; Nakaseomyces glabratus, read-out: MIC90) was 0.5 µg/mL (≈ 1.43 µM) and the “MIC Range” value (C. parapsilosis) was <0.03 to 0.12 µg/mL. The MIC (C. parapsilosis; Lodderomyces parapsilosis, read-out: GM (geometric mean MIC)) was 0.04 µg/mL (≈ 0.115 µM), the MIC50 (C. parapsilosis; Lodderomyces parapsilosis, read-out: MIC50) was < 0.03 µg/mL and the MIC90 (C. parapsilosis; Lodderomyces parapsilosis, read-out: MIC90) was 0.03 µg/mL (≈ 0.0859 µM). The “MIC Range” value (C. tropicalis) was <0.03 to 0.5 µg/mL, the MIC (C. tropicalis; Candida tropicalis, read-out: GM (geometric mean MIC)) was 0.13 µg/mL (≈ 0.372 µM) and the MIC50 (C. tropicalis; Candida tropicalis, read-out: MIC50) was 0.06 µg/mL (≈ 0.172 µM). The MIC90 (C. tropicalis; Candida tropicalis, read-out: MIC90) was 0.12 µg/mL (≈ 0.344 µM), the “MIC Range” value (C. lusitaniae) was <0.03 to 0.06 µg/mL and the MIC (C. lusitaniae; Clavispora lusitaniae, read-out: GM (geometric mean MIC)) was 0.03 µg/mL (≈ 0.0859 µM). For the same molecule, the MIC50 (C. lusitaniae; Clavispora lusitaniae, read-out: MIC50) was < 0.03 µg/mL, the MIC90 (C. lusitaniae; Clavispora lusitaniae, read-out: MIC90) was 0.03 µg/mL (≈ 0.0859 µM) and the “MIC Range” value (C. kefyr) was <0.03 to 16 µg/mL. The MIC (C. kefyr; Kluyveromyces marxianus, read-out: GM (geometric mean MIC)) was 1.63 µg/mL (≈ 4.67 µM), the MIC50 (C. kefyr; Kluyveromyces marxianus, read-out: MIC50) was < 0.03 µg/mL and the MIC90 (C. kefyr; Kluyveromyces marxianus, read-out: MIC90) was 0.6 µg/mL (≈ 1.72 µM). For the same molecule, the “MIC Range” value (C. krusei) was 0.25 to 0.5 µg/mL, the MIC (C. krusei; Pichia kudriavzevii, read-out: GM (geometric mean MIC)) was 0.425 µg/mL (≈ 1.22 µM) and the MIC50 (C. krusei; Pichia kudriavzevii, read-out: MIC50) was 0.25 µg/mL (≈ 0.716 µM). The MIC90 (C. krusei; Pichia kudriavzevii, read-out: MIC90) was 0.5 µg/mL (≈ 1.43 µM), the “MIC Range” value (C. rugosa) was 0.25 µg/mL (≈ 0.716 µM) and the MIC (C. rugosa; Diutina rugosa, read-out: GM (geometric mean MIC)) was 0.25 µg/mL (≈ 0.716 µM). For the same molecule, the “MIC Range” value (C. guilliermondii) was 0.06 µg/mL (≈ 0.172 µM), the MIC (C. guilliermondii; Meyerozyma guilliermondii, read-out: GM (geometric mean MIC)) was 0.06 µg/mL (≈ 0.172 µM) and the “MIC Range” value [1] was <0.03 to 1.0 µg/mL. For the same molecule, the MIC ([1]; read-out: GM (geometric mean MIC)) was 0.39 µg/mL (≈ 1.12 µM) and the MIC50 ([1]; read-out: MIC50) was 0.06 µg/mL (≈ 0.172 µM).
